Results from patent US5166201A, “2β,19-ethylene bridged steroids as aromatase inhibitors” (Merrell Dow Pharmaceuticals Inc., priority 1990, dated 1992).

Target: T1, aromatase (Homo sapiens, UniProt P11511)
T1 construct: microsomal protein per ml of assay buffer; from tissue; host or cells: microsomes
T1 sequence (P11511 1-503): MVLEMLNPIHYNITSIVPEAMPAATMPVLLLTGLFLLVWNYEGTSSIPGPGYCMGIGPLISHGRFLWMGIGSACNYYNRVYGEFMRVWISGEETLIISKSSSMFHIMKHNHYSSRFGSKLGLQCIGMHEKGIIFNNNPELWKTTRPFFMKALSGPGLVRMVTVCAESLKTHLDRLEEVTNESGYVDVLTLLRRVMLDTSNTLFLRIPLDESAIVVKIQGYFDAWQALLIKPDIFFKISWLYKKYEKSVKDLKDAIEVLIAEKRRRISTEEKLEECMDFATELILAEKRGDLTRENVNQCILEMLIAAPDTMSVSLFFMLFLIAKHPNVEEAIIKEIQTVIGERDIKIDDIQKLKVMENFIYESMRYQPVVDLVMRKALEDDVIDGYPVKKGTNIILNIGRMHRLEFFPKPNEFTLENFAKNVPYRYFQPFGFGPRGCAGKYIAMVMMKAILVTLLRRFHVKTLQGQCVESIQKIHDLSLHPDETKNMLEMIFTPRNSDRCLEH
Assay: time-dependent aromatase inhibition assay (preincubation, Kitz-Wilson analysis)
Assay type: biochemical
Procedure: In this assay, the inhibitor is preincubated with enzyme prior to assaying for activity in the presence of high substrate levels. A time-related decrease in enzyme activity can be indicative of irreversible binding […] a preferred method of inhibition.
In the time-dependent assay, an amount of the enzyme inhibitor in 100 μl of the assay buffer described above which will provide assay concentrations which are usually between 1 nM and 10 μm are added to 35-ml centrifuge tubes containing 600 μl of the NADPH generating system. The preincubation is started by the addition of 700 μl of aromatase preparation, usually 300-800 μg of microsomal protein per ml of assay buffer. These preparations are mixed using a vortex mixer and incubated for 0, 5, 10 or 20 minutes at 25° C. Then 100 μl of androstenedione (-6.8 μM) containing 1β-^3 H androstenedione is added in assay buffer to provide an assay concentration of substrate (0.55 μM) which is at least ten times the Km of androstenedione (0.04 μM). Following vortexing, the enzyme incubation is continued for 10 minutes before being terminated by the addition of chloroform. The amount of radioactivity in the aqueous fraction is determined by scintillation procedures. The enzymatic activity for each concentration of inhibitor at each time period of preincubation is calculated as a percent of the "0" minute vehicle control arbitrarily set at 100%. Therefore, the present enzyme inhibition is expressed as a percentage: (100 percent minus percent enzyme activity with inhibitor present).
Enzyme kinetic analysis utilized Kitz-Wilson plots for time-dependent assays. These analyses provide estimates of apparent Ki of inactivation which represents the inhibitor concentration required to produce half-maximal rate of enzyme inactivation. The pseudo first-order rate constant for enzyme inactivation (kcat) and the half-time of inactivation (.tau.50) of infinite inhibitor concentrations were determined. […]

`C[C@]12CC[C@H]3[C@@H](CCC4=CC(=O)[C@H]5CCC[C@]43C5)[C@@H]1CCC2=O` [2β,19-(ethylene)androst-4-ene-3,17-dione] was tested, and the kinact/KI (Kitz-Wilson analysis, read-out: kcat /Ki (inactivation) ratio, index of efficiency of enzyme inactivation) was 558000 M⁻¹ s⁻¹, the “half-time of inactivation (.tau.50) at infinite inhibitor concentration” value (Kitz-Wilson plot, microsomal aromatase preparation, 25° C.) was 0.87 min and the KI (inactivation) (Kitz-Wilson plot, microsomal aromatase preparation, preincubation 0-20 min at 25° C., androstenedione 0.55 μM, read-out: apparent Ki of inactivation) was 23.9 nM.
